How the values were obtained:
[1] = tested on: CD8+ T cells; test: In vitro T-cell priming assay (aAPCs loaded with peptide/MHC and anti-CD28, pMHC multimer readout; HLA-A*02 and HLA-A*24); type: cell-based, human; conditions: in vitro immunogenicity of HLA class I peptides; peptide-specific T cells by pMHC multimer staining
Text: In order to obtain information regarding the immunogenicity of the TUMAPs of the present invention, the inventors performed investigations using an in vitro T-cell priming assay based on repeated stimulations of CD8+ T cells with artificial antigen presenting cells (aAPCs) loaded with peptide/MHC complexes and anti-CD28 antibody.
In order to perform in vitro stimulations by artificial antigen presenting cells loaded with peptide-MHC complex (pMHC) and anti-CD28 antibody, the inventors first isolated CD8+ T cells from fresh HLA-A*02 leukapheresis products via positive selection using CD8 microbeads (Miltenyi Biotec, Bergisch-Gladbach, Germany) of healthy donors obtained from the University clinics Mannheim, Germany, after informed consent.
PBMCs and isolated CD8+ lymphocytes were incubated in T-cell medium (TCM) until use consisting of RPMI-Glutamax (Invitrogen, Karlsruhe, Germany) supplemented with 10% heat inactivated human AB serum (PAN-Biotech, Aidenbach, Germany), 100 U/ml Penicillin/100 μg/ml Streptomycin (Cambrex, Cologne, Germany), 1 mM sodium pyruvate (CC Pro, Oberdorla, Germany), 20 μg/ml Gentamycin (Cambrex). 2.5 ng/ml IL-7 (PromoCell, Heidelberg, Germany) and 10 U/ml IL-2 (Novartis Pharma, Nürnberg, Germany) were also added to the TCM at this step.
Generation of pMHC/anti-CD28 coated beads, T-cell stimulations and readout was performed in a highly defined in vitro system using four different pMHC molecules per stimulation condition and 8 different pMHC molecules per readout condition.
The purified co-stimulatory mouse IgG2a anti human CD28 Ab 9.3 (Jung et al., 1987) was chemically biotinylated using Sulfo-N-hydroxysuccinimidobiotin as recommended by the manufacturer (Perbio, Bonn, Germany). Beads used were 5.6 μm diameter streptavidin coated polystyrene particles (Bangs Laboratories, Illinois, USA).
pMHC used for positive and negative control stimulations were A*0201/MLA-001 (peptide […] (SEQ ID NO. 418) from modified Melan-A/MART-1) and A*0201/DDX5-001 ([…] from DDX5, SEQ ID NO. 419), respectively.
800.000 beads/200 μl were coated in 96-well plates in the presence of 4×12.5 ng different biotin-pMHC, washed and 600 ng biotin anti-CD28 were added subsequently in a volume of 200 μl. Stimulations were initiated in 96-well plates by co-incubating 1×10^6 CD8+ T cells with 2×10^5 washed coated beads in 200 μl TCM supplemented with 5 ng/ml IL-12 (PromoCell) for 3 days at 37° C. Half of the medium was then exchanged by fresh TCM supplemented with 80 U/ml IL-2 and incubating was continued for 4 days at 37° C. This stimulation cycle was performed for a total of three times. For the pMHC multimer readout using 8 different pMHC molecules per condition, a two-dimensional combinatorial coding approach was used as previously described (Andersen et al., 2012) with minor modifications encompassing coupling to 5 different fluorochromes. Finally, multimeric analyses were performed by staining the cells with Live/dead near IR dye (Invitrogen, Karlsruhe, Germany), CD8-FITC antibody clone SK1 (BD, Heidelberg, Germany) and fluorescent pMHC multimers. For analysis, a BD LSRII SORP cytometer equipped with appropriate lasers and filters was used. Peptide specific cells were calculated as percentage of total CD8+ cells. Evaluation of multimeric analysis was done using the FlowJo software (Tree Star, Oregon, USA). In vitro priming of specific multimer+CD8+ lymphocytes was detected by comparing to negative control stimulations.
Exemplary flow cytometry results after TUMAP-specific multimer staining for 2 peptides of the invention are shown in FIGS. 3A-3B together with corresponding negative controls. Results for 5 peptides from the invention are summarized in Table12A. Exemplary flow cytometry results after TUMAP-specific multimer staining for 7 peptides of the invention are shown in FIGS. 4A-4C and FIGS. 5A-5D together with corresponding negative controls.

[2] = target: HLA-A*02 (Homo sapiens, UniProt P04439, D140Y/D185E/D98H/E176V/E277Q/G131W/G231S/I119V/I121R/I166T/I218V/L300P/N151K/N90K/P208A/P217A/Q86G/Q94H/R138H/R169H); test: MHC binding assay, UV-ligand exchange with beta2m ELISA, HLA-A*02; conditions: binding to HLA-A*02 ranged by peptide exchange yield (UV-ligand exchange, beta2m ELISA)
Text: Candidate peptides for T cell based therapies according to the present invention were further tested for their MHC binding capacity (affinity). The individual peptide-MHC complexes were produced by UV-ligand exchange, where a UV-sensitive peptide is cleaved upon UV-irradiation, and exchanged with the peptide of interest as analyzed. Only peptide candidates that can effectively bind and stabilize the peptide-receptive MHC molecules prevent dissociation of the MHC complexes. To determine the yield of the exchange reaction, an ELISA was performed based on the detection of the light chain (ß2 m) of stabilized MHC complexes. The assay was performed as generally described in Rodenko et al. (Rodenko et al., 2006).
96 well MAXISorp plates (NUNC) were coated over night with 2 ug/ml streptavidin in PBS at room temperature, washed 4× and blocked for 1 h at 37° C. in 2% BSA containing blocking buffer. […] Peptide-MHC monomers of the UV-exchange reaction were diluted 100 fold in blocking buffer. Samples were incubated for 1 h at 37° C., washed four times, incubated with 2 ug/ml HRP conjugated anti-β2 m for 1h at 37° C., washed again and detected with TMB solution that is stopped with […]. Absorption was measured at 450 nm. Candidate peptides that show a high exchange yield (preferably higher than 50%, most preferred higher than 75%) are generally preferred for a generation and production of antibodies or fragments thereof, and/or T cell receptors or fragments thereof, as they show sufficient avidity to the MHC molecules and prevent dissociation of the MHC complexes.

Substance	Peptide exchange [2]	Wells positive [%] [1]
7 (AAAAKVPEV; listed as Homo sapiens) [compound 7]	+++ (50%-75% = +++)	+ (<20% = +)
2 (ALYGKLLKL; listed as Homo sapiens) [compound 2]	+++ (50%-75% = +++)	++++ (>=70% = ++++)
9 (FLGDYVENL; listed as Homo sapiens) [compound 9]	++ (20%-49% = ++)	+ (<20% = +)

Now from value to substance, other results behind:

Peptide exchange [2]	Substance	Wells positive [%] [1]
+++ (50%-75% = +++)	17 (ILHEHHIFL; listed as Homo sapiens) [compound 17]	+ (<20% = +)
+++ (50%-75% = +++)	322 (ALVSGGVAQA; listed as Homo sapiens) [compound 322]	+ (<20% = +)
+++ (50%-75% = +++)	43 (LLWAGPVTA; listed as Homo sapiens) [compound 43]	++++ (>=70% = ++++)
